From patent US20120010229A1, “THERAPEUTIC REGIMENS FOR HEDGEHOG-ASSOCIATED CANCERS” (priority 2010, published 2012)
Where a name gives a salt, the structure may show the parent alone.

Tests used:
[1] = test system: Sonic Hedgehog (SHH) ligand expression in bladder cancer cells; test: Sonic Hedgehog ligand expression in bladder cancer cells after chemotherapy; type: cell-based, human; settings: over time after chemotherapy
From the text: Similar results showing increases in Hh ligand expression in response to chemotherapy have been found in other tumor cells. For example, chemotherapy increases in Sonic Hedgehog (SHH) ligand expression in bladder cancer cells are depicted in FIGS. 4A-4D.

Pgp = Pgp (Homo sapiens, UniProt P08183); settings: cited from earlier work
hedgehog pathway = test: C3H10T1/2 alkaline phosphatase assay (Shh-dependent osteoblast differentiation); type: cell-based; settings: Mus musculus, C3H 10T1/2; sonic hedgehog 250 ng/ml; AP normalized to total protein; read-out: IC50, antagonist of the hedgehog pathway (AP activity)
From the text: Cancer cell killing by inhibition of a component of the hedgehog pathway can be ascertained using the following assay. C3H10T1/2 cells differentiate into osteoblasts when contacted with the sonic hedgehog peptide (Shh-N). Upon differentiation, these osteoblasts produce high levels of alkaline phosphatase (AP) which can be measured in an enzymatic assay (Nakamura et al., 1997 BBRC 237: 465). Compounds that block the differentiation of C3H10T1/2 into osteoblasts (a Shh dependent event) can therefore be identified by a reduction in AP production (van der Horst et al., 2003 Bone 33: 899). The assay details are described below. Additional assays to ascertain the activity of hedgehog inhibitors, including IPI-926, are described in US 2009/0181997 by Grayzel et al.; U.S. Ser. No. 61/327,373 and 61/331,365, filed on Apr. 23, 2010 and May 4, 2010, respectively; the entire contents of the aforesaid applications are incorporated herein by reference. […]
C3H10T1/2 cells were plated in 96 wells with a density of 8×10^3 cells/well. […] After incubating for 30 min at 37° C., the plates were read on an Envision plate reader at 405 nm. Total protein was quantified with a BCA protein assay kit from Pierce according to manufacturer's instructions. […]

[2] = test system: LuCaP35V (Castration Resistant) primary prostate cancer; test: LuCaP35V castration resistant primary prostate cancer model; type: in vivo; settings: docetaxel IV Q14D for 28 days, docetaxel+vehicle samples
From the text: The effects of IPI-926 were examined following docetaxel chemotherapy in a model of castration resistant prostate cancer. Prostate cancer is known to be a highly desmoplastic cancer, and one that preferentially metastasizes to bone. Sonic hedgehog ligand is expressed in clinical specimens and primary xenograft models. […] FIG. 7 summarizes the effects of IPI-926 in LuCaP35V (Castration Resistant) primary prostate cancer model. Days of docetaxel and IPI-926 administration are indicated by the arrowheads at the indicated days post-implant. The following samples were tested: Vehicle control (administered orally once a day), 40 mg/kg of IPI-926 (administered orally once a day), docetaxel (administered intravenously Q14D for 28 days), or docetaxel (administered intravenously Q14D for 28 days) followed by 40 mg/kg of IPI-926, as shown in FIG. 7. […] Thus, IPI-926 can be useful as maintenance therapy in prostate cancer.

[3] = test system: Ptch1+/-; p53-/- medulloblastoma; settings: cited from earlier work

Sequence of Pgp (P08183 whole entry): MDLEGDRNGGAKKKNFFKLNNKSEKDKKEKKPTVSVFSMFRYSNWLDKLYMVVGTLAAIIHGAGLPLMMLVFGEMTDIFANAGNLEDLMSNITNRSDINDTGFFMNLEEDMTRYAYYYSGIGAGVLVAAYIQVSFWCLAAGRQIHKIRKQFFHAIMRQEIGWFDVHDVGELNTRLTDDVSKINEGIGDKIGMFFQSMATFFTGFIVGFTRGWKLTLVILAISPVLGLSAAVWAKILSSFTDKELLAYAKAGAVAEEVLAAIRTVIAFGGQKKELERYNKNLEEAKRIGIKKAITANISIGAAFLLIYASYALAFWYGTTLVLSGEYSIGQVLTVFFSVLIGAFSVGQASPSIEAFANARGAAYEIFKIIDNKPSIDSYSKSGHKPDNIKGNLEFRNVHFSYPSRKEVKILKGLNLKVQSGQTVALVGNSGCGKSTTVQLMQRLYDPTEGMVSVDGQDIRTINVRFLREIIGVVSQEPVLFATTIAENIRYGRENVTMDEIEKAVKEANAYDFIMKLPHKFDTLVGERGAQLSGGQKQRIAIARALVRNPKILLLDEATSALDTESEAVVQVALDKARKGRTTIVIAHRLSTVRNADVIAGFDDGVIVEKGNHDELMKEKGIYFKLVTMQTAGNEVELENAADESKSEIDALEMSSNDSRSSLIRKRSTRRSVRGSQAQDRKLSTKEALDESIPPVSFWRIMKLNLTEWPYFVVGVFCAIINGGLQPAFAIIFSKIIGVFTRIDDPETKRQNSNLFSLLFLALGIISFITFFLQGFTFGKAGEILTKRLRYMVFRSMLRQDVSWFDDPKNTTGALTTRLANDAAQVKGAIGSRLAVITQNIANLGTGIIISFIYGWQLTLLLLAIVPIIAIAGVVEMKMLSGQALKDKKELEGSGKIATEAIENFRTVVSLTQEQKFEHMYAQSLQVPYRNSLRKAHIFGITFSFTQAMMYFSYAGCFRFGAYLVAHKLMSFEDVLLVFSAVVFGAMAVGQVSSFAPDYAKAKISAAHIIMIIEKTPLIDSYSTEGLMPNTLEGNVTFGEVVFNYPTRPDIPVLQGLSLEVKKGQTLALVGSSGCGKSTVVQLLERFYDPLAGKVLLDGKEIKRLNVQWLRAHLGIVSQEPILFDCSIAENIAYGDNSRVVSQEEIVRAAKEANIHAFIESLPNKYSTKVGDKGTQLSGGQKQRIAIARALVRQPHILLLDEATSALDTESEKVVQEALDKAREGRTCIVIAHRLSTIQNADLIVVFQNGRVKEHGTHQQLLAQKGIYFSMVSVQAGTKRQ

COc1cccc2c1C(=O)c1c(O)c3c(c(O)c1C2=O)C[C@@](O)(C(=O)CO)C[C@@H]3O[C@H]1C[C@H](N)[C@H](O)[C@H](C)O1 [Doxorubicin]
Sonic Hedgehog (SHH) ligand expression [1]: increase in expression over time

CS(=O)(=O)c1ccc(C(=O)Nc2ccc(Cl)c(-c3ccccn3)c2)c(Cl)c1 [GDC-0449]
Pgp substrate (Pgp): p-glycoprotein (Pgp) substrate

Nc1ccn([C@@H]2O[C@H](CO)[C@@H](O)C2(F)F)c(=O)n1 [Gemcitabine]
Sonic Hedgehog (SHH) ligand expression [1]: increase in expression over time

CC1=C2C[C@H]3[C@@H](CC[C@@H]4C[C@H](NS(C)(=O)=O)CC[C@@]43C)[C@@H]2CC[C@@]2(C1)O[C@@H]1C[C@H](C)CN[C@H]1[C@H]2C [IPI-926 (HCl salt)]
IC50 (hedgehog pathway): < 20 nM

CC(=O)O[C@@]12CO[C@@H]1C[C@H](O)[C@@]1(C)C(=O)[C@H](O)C3=C(C)[C@@H](OC(=O)[C@H](O)[C@@H](NC(=O)OC(C)(C)C)c4ccccc4)C[C@@](O)([C@@H](OC(=O)c4ccccc4)[C@H]21)C3(C)C [docetaxel, reference compound]
tumor volume after cessation of docetaxel [2]: Tumor reoccurrence was detected

HhAntag
survival vs vehicle ([3]; 100 mg/kg, enrolled at 5 weeks of age): survival benefit | tumor mass ([3]; 2 weeks of twice daily 20 mg/kg or 100 mg/kg, enrolled at 3 weeks of age): substantial decrease in tumor mass
